Patent publication US7094752B2 (Chiron Corporation, priority 1997, dated 2006)

Key:
[1] = target: T1, β1/caveolin/uPAR complexes (Homo sapiens, UniProt Q03405); experiment: Immunoprecipitation of uPAR with β1 / caveolin; assay type: cell-based; conditions: 100 μM, co-immunoprecipitation
T1 construct: The full length cDNA for the human urokinase receptor; expressed in transfected cells; host or cells: 293 embryonic kidney cells stably expressing GPI-uPAR
Method: When triton X 100 (0.2%) insoluble fraction of GPI-uPAR 293 cells is solubilized in polar detergents, immunoprecipitation of β1 clearly co-precipitates uPAR as described in Filardo et al, J. Cell. Biol. 1995, in press: Cells (5×10^6) were cultured overnight, washed twice with microtubule stabilization buffer (0.1M PIPES, pH 6.9, 2M glycerol, 1 mM EDTA, and 1 mM magnesium acetate), and then extracted on ice for 5 minutes in buffer containing 0.2% Triton X 100 and inhibitors (1 mM sodium orthovandate, 1 mM phenylsulfonyl fluoride, […] leupeptin). The insoluble residues were solubolized at 4° C. for 20 minutes in 1× RIPA buffer (150 mM sodium chloride, 50 mM Tris-HCl, pH 7.5, 1% deoxycholate, 0.1% sodium dodecyl sulfate, 1% Triton X-100) supplemented with protease inhibitors. The triton soluble fraction was diluted 1:1 with 2× RIPA buffer. Both fractions were centrifuged for 10 minutes at 6000 rpm, and then precleared by incubation with nonimmune serum and protein A-agarose for 2 hours at 4° C.
Supernatants were transferred to fresh tubes and incubated with antibodies against β1 or caveolin for 2 hours at 4° C. Immune complexes were recovered with protein A-agarose. The washed immunoprecipitates were subjected to 8% SDS-PAGE, and transferred onto a nitrocellulose membrane. […]

nontransfected 293 cells = experiment: Adhesion of nontransfected 293 cells to fibronectin or collagen; assay type: cell-based
From the text: To explore whether uPAR binds to integrins, nontransfected 293 cells were allowed to adhere to fibronectin or collagen in the presence of recombinant soluble uPAR (suPAR).

Mac-1 and uPAR = target: T2, Mac-1 and uPAR (Homo sapiens, UniProt Q03405); experiment: Mac-1/uPAR interaction in U937 cell line; assay type: cell-based; conditions: 100 μM
T2 construct: endogenous in cells; host or cells: U937 cell line

soluble uPAR = soluble uPAR (Homo sapiens, UniProt Q03405); assay type: binding; design: sUPAR, soluble truncated form of the urokinase receptor; made in house; host or cells: baculovirus-infected Sf9 insect cells
Method: Streptavidin, 100 μl (0.1 mg/ml) in 50 mM Na2CO3, pH 9.6, was added to MaxiSorp wells (Nunc), incubated overnight at 4 C, and then washed with PBS/BSA. Biotinylated sUPAR (25 nM in PBS/BSA) was added to the wells and incubated for 2 hours at room temperature prior to washing. Competitive peptide inhibitors were added to the wells immediately prior to addition of the bacteriophage. The wells were incubated for one hour at room temperature, then washed and bound bacteriophage eluted with 6M urea in 0.1N HCl, pH 2.5. After 15 minutes, the urea eluate was brought to neutral pH by addition of 2M Tris base and the bacteriophage titers of input stocks and elutions measured by plaque formation assay. Results were expressed as the percent of input bacteriophage which bind to the wells. Alternatively, the amount of bacteriophage was determined in an ELISA where phage were preincubated with HRP-conjugated anti-M13 antibody for 30 minutes at room temperature before dispensing into wells prepared as above and incubated for one hour at room temperature. The final anti-M13 conjugate dilution was 1:4000. After washing, TMB substrate (100 μl/well) was added and color development was stopped with 0.8N H2SO4 (100 μl/well). The absorbance at 450 nm was then measured in a 96 well plate reader.
In a uPAR binding assay, the following analogs were tested in a competition with phage displaying either peptide 25 or peptide 9. The analogs comprise both natural and unnatural amino acids.
The analogs were tested in an assay utilizing soluble uPAR, similar to the method described in Example 2. The analogs were tested for their ability to compete with phage displaying either peptide 9 or peptide 25. Analogs 3–61 were tested in competition with peptide 25. Analogs 62–96 were tested in competition with peptide 9. Approximately 10^8 plaque forming units of the phage were used in the assay.
The analogs were tested at a concentration at 40 μM in the uPAR competition assay with phage displaying peptide 25. The results below show which analogs were active.
Analogs 31–61 were tested for their ability to compete with phage displaying peptide 25. The active analogs were tested further at two concentrations, 5 μM and 2.5 μM. These concentrations were calculated based on the synthesis reactions. However, the sequences * were further tested and determined to contain high amounts of amino acids and the quantity tested could have been higher than 5 μM or 2.5 μM.

Sequence of soluble uPAR (Q03405 23-305 limits assumed): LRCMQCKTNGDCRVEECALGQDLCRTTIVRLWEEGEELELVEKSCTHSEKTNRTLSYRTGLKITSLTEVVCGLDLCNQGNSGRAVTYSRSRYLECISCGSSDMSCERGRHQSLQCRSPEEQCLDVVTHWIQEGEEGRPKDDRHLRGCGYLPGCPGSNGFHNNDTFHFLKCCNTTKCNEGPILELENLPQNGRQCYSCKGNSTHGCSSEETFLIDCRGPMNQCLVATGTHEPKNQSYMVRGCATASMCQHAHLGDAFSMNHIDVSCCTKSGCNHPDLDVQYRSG
T2 sequence (Q03405 23-305 limits assumed): as above
T1 sequence (Q03405 23-305, one chain of several): as the sequence (Q03405 23-305 limits assumed) above

Substance: H-AESTYHHLSLGYMYTLN-NH2 [peptide 25]
- disruption of β1/caveolin/uPAR complexes [1]: largely disrupted
- reversal of suPAR inhibition of adhesion to fibronectin and collagen (nontransfected 293 cells; 100 μM peptide): reversible
- adhesion to fibronectin by nontransfected 293 cells (nontransfected 293 cells; peptide alone): no effect
- interaction between Mac-1 and uPAR (Mac-1 and uPAR): abrogated the interaction
- % Inhibition 2.5 uM (soluble uPAR; 2500.0): 45%
- % Inhibition 5 uM (soluble uPAR; 5000.0): 59%
